{"source": "ChEMBL document CHEMBL5532761", "about": "“Rosavin improves insulin resistance and alleviates hepatic and kidney damage via modulating the cGAS-STING pathway and autophagy signaling in HFD/STZ-induced T2DM animals” (2024)", "key": {"[1]": {"system": "Rattus norvegicus", "test": "(§1) Antidiabetic activity in high fat diet-STZ induced diabetic Wistar rat model assessed as mean area percentage of TNF alpha in liver at 20 mg/kg, ip pretreated with high fat diet for 4 weeks followed by 8 hrs fasting after STZ administration and measured after 4 weeks of compound treatment by immunohistochemistry based microscopic analysis (reference value: 18.28 +/- 1.31 %)", "format": "functional"}, "[2]": {"system": "Rattus norvegicus", "test": "(§2) Antidiabetic activity in high fat diet-STZ induced diabetic Wistar rat model assessed as triglyceride level at 20 mg/kg, ip pretreated with high fat diet for 4 weeks followed by 8 hrs fasting after STZ administration and measured 4 weeks after compound treatment (reference value: 17.05 +/- 0.803 mmol/L)", "format": "functional"}, "[3]": {"system": "Rattus norvegicus", "test": "(§3) Antidiabetic activity in high fat diet-STZ induced diabetic Wistar rat model assessed as intact tubular segments in kidney at 20 to 30 mg/kg, ip pretreated with high fat diet for 4 weeks followed by 8 hrs fasting after STZ administration and measured 4 weeks after compound treatment by hematoxylin and eosin staining based microscopic analysis", "format": "functional, organism-based", "details": "dose 20-30 mg/kg"}, "[4]": {"system": "Rattus norvegicus", "test": "as §2, with “cholesterol” for “triglyceride”, “10” for “20”, “10.39” for “17.05”, “1.3” for “0.803”", "format": "functional"}, "[5]": {"system": "Rattus norvegicus", "test": "(§4) Antidiabetic activity in ip dosed high fat diet-STZ induced diabetic Wistar rat model assessed as reduction of ZBP1 mRNA expression in adipose tissue pretreated with high fat diet for 4 weeks followed by 8 hrs fasting after STZ administration and measured 4 weeks after compound treatment by RT-qPCR analysis", "format": "functional, organism-based", "details": "dose 10-30 mg/kg"}, "[6]": {"system": "Rattus norvegicus", "test": "(§5) Antidiabetic activity in high fat diet-STZ induced diabetic Wistar rat model assessed as HOMA-IR level at 10 mg/kg, ip pretreated with high fat diet for 4 weeks followed by 8 hrs fasting after STZ administration and measured 4 weeks after compound treatment (reference value: 21.51 +/- 2.17)", "format": "functional"}, "[7]": {"system": "Rattus norvegicus", "test": "as §5, with “urine albumin to creatinine ratio” for “HOMA-IR level”, “87.13” for “21.51”, “9.75 mg/g)” for “2.17)”", "format": "functional"}, "[8]": {"system": "Rattus norvegicus", "test": "as §3, with “organized histological features of hepatic parenchyma” for “intact tubular segments in kidney”, “at” for “at 20 to”", "format": "functional, organism-based"}, "[9]": {"system": "Rattus norvegicus", "test": "as §2, with “LDL-cholesterol” for “triglyceride”, “6.54” for “17.05”, “0.918” for “0.803”", "format": "functional"}, "[10]": {"system": "Rattus norvegicus", "test": "as §3, with “reduction” for “intact tubular segments”, “epididymal adipocyte cell size in adipose tissue” for “kidney”", "format": "functional, organism-based", "details": "dose 20-30 mg/kg"}, "[11]": {"system": "Rattus norvegicus", "test": "Antidiabetic activity in ip dosed high fat diet-STZ induced diabetic Wistar rat model assessed as reduction of miR-1976 expression in kidney pretreated with high fat diet for 4 weeks followed by 8 hrs fasting after STZ administration and measured 4 weeks after compound treatment by RT-qPCR analysis", "format": "functional, organism-based", "details": "dose 10-30 mg/kg"}, "[12]": {"system": "Rattus norvegicus", "test": "as §2, with “urine albumin to creatinine ratio” for “triglyceride level”, “87.13” for “17.05”, “9.75 mg/g)” for “0.803 mmol/L)”", "format": "functional"}, "[13]": {"system": "Rattus norvegicus", "test": "as §2, with “30” for “20”", "format": "functional"}, "[14]": {"system": "Rattus norvegicus", "test": "as §3, with “reduction” for “intact tubular segments”, “abnormal infiltrates in liver” for “kidney”, “20” for “20 to 30”", "format": "functional, organism-based"}, "[15]": {"system": "Rattus norvegicus", "test": "as §1, with “TNFalpha” for “TNF alpha”, “kidney” for “liver”, “24” for “18.28”, “1.5” for “1.31”", "format": "functional"}, "[16]": {"system": "Rattus norvegicus", "test": "as §3, with “hepatocytes” for “tubular segments in kidney”, “at” for “at 20 to”", "format": "functional, organism-based"}, "[17]": {"system": "Rattus norvegicus", "test": "Antidiabetic activity in high fat diet-STZ induced diabetic Wistar rat model assessed as HOMA-IR level at 20 mg/kg, ip pretreated with high fat diet for 4 weeks followed by 8 hrs fasting after STZ administration and measured 4 weeks after compound treatment (reference value: 21.51 +/- 2.17)", "format": "functional"}, "[18]": {"system": "Rattus norvegicus", "test": "Antidiabetic activity in ip dosed high fat diet-STZ induced diabetic Wistar rat model assessed as reduction of ZBP1 mRNA expression in kidney pretreated with high fat diet for 4 weeks followed by 8 hrs fasting after STZ administration and measured 4 weeks after compound treatment by RT-qPCR analysis", "format": "functional, organism-based", "details": "dose 10-30 mg/kg"}, "[19]": {"system": "Rattus norvegicus", "test": "as §3, with “protection against periportal mononuclear inflammatory cell infiltration” for “intact tubular segments”, “liver” for “kidney”, “10” for “20 to 30”", "format": "functional, organism-based"}, "[20]": {"system": "Rattus norvegicus", "test": "Antidiabetic activity in ip dosed high fat diet-STZ induced diabetic Wistar rat model assessed as reduction of miR-1976 expression in liver pretreated with high fat diet for 4 weeks followed by 8 hrs fasting after STZ administration and measured 4 weeks after compound treatment by RT-qPCR analysis", "format": "functional, organism-based", "details": "dose 10-30 mg/kg"}, "[21]": {"system": "Rattus norvegicus", "test": "(§6) Antidiabetic activity in high fat diet-STZ induced diabetic Wistar rat model assessed as AST level at 30 mg/kg, ip pretreated with high fat diet for 4 weeks followed by 8 hrs fasting after STZ administration and measured 4 weeks after compound treatment (reference value: 136.3 +/- 22.8 IU/L)", "format": "functional"}, "[22]": {"system": "Rattus norvegicus", "test": "as §3, with “reduction in” for “intact”, “dilation” for “segments”, “at” for “at 20 to”", "format": "functional, organism-based"}, "[23]": {"system": "Rattus norvegicus", "test": "as §3, with “binucleated cells” for “intact tubular segments”, “liver” for “kidney”, “at” for “at 20 to”", "format": "functional, organism-based"}, "[24]": {"system": "Rattus norvegicus", "test": "Antidiabetic activity in high fat diet-STZ induced diabetic Wistar rat model assessed as AST level at 20 mg/kg, ip pretreated with high fat diet for 4 weeks followed by 8 hrs fasting after STZ administration and measured 4 weeks after compound treatment (reference value: 136.3 +/- 22.8 IU/L)", "format": "functional"}, "[25]": {"system": "Rattus norvegicus", "test": "as §3, with “reduction in persistent” for “intact”, “dilation” for “segments”, “20” for “20 to 30”", "format": "functional, organism-based"}, "[26]": {"system": "Rattus norvegicus", "test": "as §6, with “blood urea nitrogen” for “AST”, “466.4” for “136.3”, “51.16 mg%)” for “22.8 IU/L)”", "format": "functional"}, "[27]": {"system": "Rattus norvegicus", "test": "as §2, with “10” for “20”", "format": "functional"}, "[28]": {"system": "Rattus norvegicus", "test": "as §1, with “10” for “20”", "format": "functional"}, "[29]": {"system": "Rattus norvegicus", "test": "as §3, with “reduction” for “intact tubular segments”, “degenerative changes in liver” for “kidney”, “at” for “at 20 to”", "format": "functional, organism-based"}, "[30]": {"system": "Rattus norvegicus", "test": "Antidiabetic activity in high fat diet-STZ induced diabetic Wistar rat model assessed as creatinine level at 10 mg/kg, ip pretreated with high fat diet for 4 weeks followed by 8 hrs fasting after STZ administration and measured 4 weeks after compound treatment (reference value: 3.88 +/- 0.502 mg%)", "format": "functional"}, "[31]": {"system": "Rattus norvegicus", "test": "as §2, with “cholesterol” for “triglyceride”, “30” for “20”, “10.39” for “17.05”, “1.3” for “0.803”", "format": "functional"}, "[32]": {"system": "Rattus norvegicus", "test": "as §4, with “in” for “in ip dosed”, “increase in AC074117.2 lncRNA” for “reduction of ZBP1 mRNA”, “tissue at 10 to 30 mg/kg, ip” for “tissue”", "format": "functional, organism-based", "details": "dose 10-30 mg/kg"}}, "note": "Active and inactive are the calls of the source. The calls are words filed in the database; no cut-off is given here.", "data": [{"smiles": "O[C@@H]1[C@@H](O)[C@H](OC/C=C/c2ccccc2)O[C@H](CO[C@@H]2OC[C@H](O)[C@H](O)[C@H]2O)[C@H]1O", "values": [{"measurement": "Activity", "setting": "[1]", "value": 8.75, "unit": "%"}, {"measurement": "Activity", "setting": "[2]", "value": 6.46, "unit": "mmol/L"}, {"measurement": "Activity", "setting": "[3]", "value": "Active"}, {"measurement": "Activity", "setting": "[4]", "value": 6.09, "unit": "mmol/L"}, {"measurement": "Activity", "setting": "[5]", "value": "Dose-Dependent Effect"}, {"measurement": "Activity", "setting": "[6]", "value": 7.81}, {"measurement": "Activity", "setting": "[7]", "value": 50.75, "unit": "mg/g"}, {"measurement": "Activity", "setting": "[8]", "value": "Active"}, {"measurement": "Activity", "setting": "[9]", "value": 2.13, "unit": "mmol/L"}, {"measurement": "Activity", "setting": "[10]", "value": "Active"}, {"measurement": "Activity", "setting": "[11]", "value": "Dose-Dependent Effect"}, {"measurement": "Activity", "setting": "[12]", "value": 33.38, "unit": "mg/g"}, {"measurement": "Activity", "setting": "[13]", "value": 4.03, "unit": "mmol/L"}, {"measurement": "Activity", "setting": "[14]", "value": "Active"}, {"measurement": "Activity", "setting": "[15]", "value": 13.17, "unit": "%"}, {"measurement": "Activity", "setting": "[16]", "value": "Active"}, {"measurement": "Activity", "setting": "[17]", "value": 2.76}, {"measurement": "Activity", "setting": "[18]", "value": "Dose-Dependent Effect"}, {"measurement": "Activity", "setting": "[19]", "value": "inactive"}, {"measurement": "Activity", "setting": "[20]", "value": "Dose-Dependent Effect"}, {"measurement": "Activity", "setting": "[21]", "value": 30.25, "unit": "IU/L"}, {"measurement": "Activity", "setting": "[22]", "value": "Active"}, {"measurement": "Activity", "setting": "[23]", "value": "Active"}, {"measurement": "Activity", "setting": "[24]", "value": 54.5, "unit": "IU/L"}, {"measurement": "Activity", "setting": "[25]", "value": "Active"}, {"measurement": "Activity", "setting": "[26]", "value": 172.3, "unit": "mg%"}, {"measurement": "Activity", "setting": "[27]", "value": 8.52, "unit": "mmol/L"}, {"measurement": "Activity", "setting": "[28]", "value": 11.3, "unit": "%"}, {"measurement": "Activity", "setting": "[29]", "value": "Active"}, {"measurement": "Activity", "setting": "[30]", "value": 2.12, "unit": "mg%"}, {"measurement": "Activity", "setting": "[31]", "value": 3.15, "unit": "mmol/L"}, {"measurement": "Activity", "setting": "[32]", "value": "Active"}]}]}
